The values that follow come from ChEMBL document CHEMBL1201862, “PubChem BioAssay data set” (2004).

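Exposure lasted 48 hours, with cells grown in 96-well plates and compounds tested at five concentrations. GI50 marks 50% less growth.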 Activity calls are given as the source filed them. Rule as the data show it: active = GI50 up to about 1.1 µM and inactive = higher.

Some test systems named below: 786-0; UACC-257; SK-MEL-2; SN12C; SF-295; HCT-15; IGROV-1; OVCAR-3; HCC 2998; M14; TK-10; HOP-92; UACC-62; HT-29; UO-31; NCI-H522.
Experiment in all cases: inhibition of tumour cell growth, NCI panel, 48 h

As for `O=C(NCCCOC(=O)CCCCCCCCC(=O)OCCCNC(=O)NC(=O)c1c[nH]c(=O)[nH]c1=O)NC(=O)c1c[nH]c(=O)[nH]c1=O`, the GI50 in the assay on 786-0 was > 100 µM (inactive); with UACC-257, > 100 µM (inactive); in the assay on SK-MEL-2 it was > 100 µM (inactive); with SN12C it was > 100 µM (inactive); with SF-295 it was > 100 µM (inactive); in the assay on HCT-15, greater than 100 µM. In addition, the GI50 in the assay on IGROV-1, in the assay on OVCAR-3, with HCC 2998, in the assay on M14, with TK-10 and in the assay with HOP-92 was > 100 µM (inactive) each time. For the same compound, in the assay on UACC-62, the GI50 is > 100 µM (inactive).

With `FC(F)(F)C1(Cl)C(Cl)(c2ccccc2)C1(Cl)c1ccccc1` (centres undefined), the GI50 in the assay on 786-0 is 15.8 µM (inactive); in the assay with UACC-257 it was 14.6 µM (inactive); with SK-MEL-2 it was 15.7 µM (inactive); in the assay on SN12C, 15.2 µM (inactive); in the assay on SF-295, 15.8 µM (inactive); in the assay with HCT-15, 13.7 µM. The GI50 with IGROV-1 was 12.9 µM (inactive); in the assay with HT-29, 14.8 µM (inactive); in the assay on OVCAR-3, 14.9 µM (inactive); in the assay with HCC 2998 it was 16.9 µM (inactive); in the assay on M14, 16.4 µM (inactive); in the assay on TK-10 it was 18.6 µM (inactive). Further, the GI50 with HOP-92 was 12.3 µM (inactive); in the assay on UACC-62, 15.8 µM (inactive); in the assay with UO-31, 14.8 µM (inactive).

For `CC(=O)NC1CC2Oc3ccc(C)cc3C(C)(O2)C1O` (centres undefined), the GI50 in the assay on 786-0 is > 100 µM (inactive); in the assay on UACC-257 it was > 100 µM (inactive); in the assay with SK-MEL-2, > 100 µM (inactive); in the assay with SN12C it was > 100 µM (inactive); with SF-295, > 100 µM (inactive); in the assay on HCT-15 it was greater than 100 µM. For the same compound, the GI50 with NCI-H522, with IGROV-1, in the assay on HT-29, in the assay on OVCAR-3, in the assay with M14 and in the assay with TK-10 was > 100 µM (inactive) each time. Also, the GI50 in the assay on UACC-62 and in the assay on UO-31 was > 100 µM (inactive) in each case.

With `O=C(Nc1ccc(/N=N/c2ccccc2)cc1)Sc1ccccc1C(=O)O`, the GI50 is > 100 µM (inactive) in the assay with 786-0; > 100 µM (inactive) in the assay with UACC-257; > 100 µM (inactive) with SK-MEL-2; > 100 µM (inactive) in the assay with SN12C; > 100 µM (inactive) in the assay on SF-295; greater than 100 µM in the assay with HCT-15. For the same compound, the GI50 with NCI-H522 is > 100 µM (inactive); with IGROV-1, 0.7 µM (active); with HT-29 it was > 100 µM (inactive); in the assay with OVCAR-3, > 100 µM (inactive); with HCC 2998, > 100 µM (inactive); in the assay on M14, > 100 µM (inactive). In addition, the GI50 in the assay on TK-10, with UACC-62 and in the assay on UO-31 was > 100 µM (inactive) in each case.

In the case of `CCOC(=O)C1Nc2ccc([N+](=O)[O-])cc2[C@H]2OCC[C@@H]12` (some centres undefined), the GI50 in the assay on 786-0 was > 100 µM (inactive); in the assay on UACC-257, > 100 µM (inactive); in the assay with SK-MEL-2 it was > 100 µM (inactive); in the assay on SN12C, > 100 µM (inactive); in the assay with SF-295, > 100 µM (inactive); in the assay on HCT-15 it was greater than 100 µM. Besides, the GI50 in the assay with NCI-H522, in the assay on IGROV-1, in the assay on HT-29, with OVCAR-3, in the assay on HCC 2998 and in the assay on M14 was > 100 µM (inactive) each time. For the same compound, the GI50 in the assay with TK-10 and in the assay with UACC-62 was > 100 µM (inactive) each time.

Take `CCN(CC)CC1CCCCCCCCCCC1=O` (centres undefined): the GI50 in the assay with 786-0 is > 100 µM (inactive); in the assay with UACC-257 it was > 100 µM (inactive); with SK-MEL-2 it was > 100 µM (inactive); with SN12C, > 100 µM (inactive); in the assay with SF-295 it was > 100 µM (inactive); in the assay on HCT-15, greater than 100 µM. Besides, the GI50 with NCI-H522, with IGROV-1, in the assay with HT-29, in the assay with OVCAR-3, with HCC 2998 and in the assay on M14 was > 100 µM (inactive) each time. Moreover, the GI50 with TK-10, in the assay with UACC-62 and in the assay on UO-31 was > 100 µM (inactive) throughout.

Take `CCOC(=O)C(=C=C=C(c1ccccc1)c1ccccc1)C(=O)OCC`: the GI50 is 17.8 µM (inactive) in the assay with 786-0; 16.8 µM (inactive) in the assay with UACC-257; 16.6 µM (inactive) with SK-MEL-2; 20.7 µM (inactive) with SN12C; 16.3 µM (inactive) with SF-295; 19.6 µM in the assay with HCT-15. Further, the GI50 in the assay on IGROV-1 is 18.1 µM (inactive); with HT-29 it was 19.4 µM (inactive); with OVCAR-3, 15.5 µM (inactive); in the assay on HCC 2998, 25 µM (inactive); in the assay with M14 it was 20.6 µM (inactive); in the assay on TK-10 it was 16 µM (inactive). The GI50 with HOP-92 was 15.1 µM (inactive); in the assay on UACC-62 it was 18.5 µM (inactive); in the assay on UO-31 it was 18.6 µM (inactive).

On to `O=c1[nH]c(C2CCCCC2)nc2ccc(Cl)cc12`, for which the GI50 in the assay with 786-0 is > 100 µM (inactive); with UACC-257 it was > 100 µM (inactive); in the assay on SK-MEL-2 it was > 100 µM (inactive); with SN12C, > 100 µM (inactive); with SF-295, > 100 µM (inactive); in the assay on HCT-15, greater than 100 µM. Besides, the GI50 is 41.3 µM (inactive) in the assay with IGROV-1; > 100 µM (inactive) in the assay on HT-29; > 100 µM (inactive) in the assay with OVCAR-3; > 100 µM (inactive) with HCC 2998; > 100 µM (inactive) in the assay on TK-10; > 100 µM (inactive) with HOP-92. Besides, the GI50 was > 100 µM (inactive) with UACC-62 and 93.3 µM (inactive) in the assay with UO-31.

For `O=S(OC12CC3CC(CC(C3)C1)C2)c1cc(Cl)cc(Cl)c1OCc1ccccc1` (centres undefined), the GI50 with UACC-257 was > 100 µM (inactive); in the assay with SK-MEL-2 it was > 100 µM (inactive); with SN12C it was > 100 µM (inactive); in the assay with NCI-H522, 19 µM (inactive); in the assay on HT-29, > 100 µM (inactive); in the assay on OVCAR-3 it was > 100 µM (inactive). Further, the GI50 in the assay on HCC 2998, in the assay on M14, with TK-10, in the assay with UACC-62 and in the assay with UO-31 was > 100 µM (inactive) throughout.

In the case of `COc1ccc(/C(Cl)=C(\C=O)c2ccc(Cl)c(Cl)c2)cc1`, the GI50 with SK-MEL-2 was 3.52 µM (inactive); in the assay on SN12C it was 7.1 µM (inactive); in the assay on SF-295, 9.12 µM (inactive); in the assay with HCT-15 it was 4.6 µM; in the assay with NCI-H522, 2.51 µM (inactive); in the assay on IGROV-1, 17 µM (inactive). Moreover, the GI50 in the assay with HT-29 was 4.37 µM (inactive); in the assay on OVCAR-3 it was 17.9 µM (inactive); in the assay on M14, 13.7 µM (inactive); in the assay with TK-10, 18 µM (inactive); in the assay with HOP-92, 6.07 µM (inactive); with UACC-62 it was 8.2 µM (inactive). The GI50 in the assay with UO-31 is 12.8 µM (inactive).
